The source of these data is patent US12076443B2, “Preparation method of nanozyme composite-based hybrid hydrogel eye drop” (INSTITUTE OF OPHTHALMOLOGY AFFILIATED TO SHANDONG FIRST …, priority 2022, dated 2024).

In assay [1] the test system is P. aeruginosa. The conditions noted are these: P. aeruginosa isolated from the ocular surface; cited from earlier work.
The subject of assay [2] is drug-resistant P. aeruginosa strain. The assay can be described thus: in vivo antibacterial experiment, corneal infection (drug-resistant P. aeruginosa strain). The conditions noted are these: FIGS. 8A-8B. The text has this:
(§1) The TCNH eye drop prepared in the above embodiment was used in in vitro antibacterial experiments for Escherichia coli (E. coli), P. aeruginosa, drug-resistant P. aeruginosa, and Candida albicans (C. albicans) and in vivo prevention and treatment experiments for corneal infections caused by P. aeruginosa and drug-resistant P. aeruginosa.

For assay [3], the system named is Candida albicans (C. albicans). Put plainly: in vitro antibacterial experiment of TCNH eye drop. The class given is cell-based.
From the text: as §1
(§2) FIG. 4 to FIG. 6 show results of the in vitro antibacterial experiments of the TCNH eye drop.

In assay [4] the test system is Escherichia coli (E. coli). Put plainly: in vitro antibacterial experiment of TCNH eye drop. The class given is cell-based.
From the text: as §1, §2

Assay [5] has as its system P. aeruginosa. The assay can be described thus: in vitro antibacterial experiment of TCNH eye drop. Format: cell-based, Pseudomonas aeruginosa.
From the text: as §1, §2

Assay [6] has as its system drug-resistant P. aeruginosa. The assay can be described thus: in vitro antibacterial experiment of TCNH eye drop. Format: cell-based, Pseudomonas aeruginosa.
From the text: as §1, §2

Assay [7] concerns P. aeruginosa. The assay can be described thus: in vivo antibacterial experiment, corneal infection (P. aeruginosa). The conditions noted are these: FIGS. 7A-7B.
From the text: as §1

Take `O=C(O)c1cn(C2CC2)c2cc(N3CCNCC3)c(F)cc2c1=O` [ciprofloxacin]: in assay [1], the “average resistance rate of P. aeruginosa to the antibiotic” value (“average resistance rate of P. aeruginosa” for short) was 9%.

With `NC[C@H]1O[C@H](O[C@H]2[C@H](O)[C@@H](O[C@H]3O[C@H](CO)[C@@H](O)[C@H](N)[C@H]3O)[C@H](N)C[C@@H]2N)[C@H](N)C[C@@H]1O` [tobramycin], the corneal infection result in assay [2] is reported as “significant infection”.

On to `CC(C)(O/N=C(\C(=O)N[C@@H]1C(=O)N2C(C(=O)[O-])=C(C[n+]3ccccc3)CS[C@H]12)c1csc(N)n1)C(=O)O` [ceftazidime], for which the “average resistance rate of P. aeruginosa” value in assay [1] was 13%.

gentamicin: the “average resistance rate of P. aeruginosa” value in assay [1] was 22%. In assay [2], the corneal infection result is on record as “significant infection”.

As to `OO` [H2O2, hydrogen peroxide], the “bacterial colonies on plates (plate experiment)” value in assay [3] (FIG. 4), in assay [4] (FIG. 4), in assay [5] (FIG. 4) and in assay [6] (FIG. 4) was “overgrown with bacteria” throughout. Also, the “live bacteria stained green / dead bacteria stained red” value in assay [3] (FIG. 5) was “a large number of live bacteria stained green and a small number of dead bacteria stained red”; in assay [4] (FIG. 5), “a large number of live bacteria stained green and a small number of dead bacteria stained red”; in assay [5] (FIG. 5), “a large number of live bacteria stained green and a small number of dead bacteria stained red”; in assay [6] (FIG. 5) it was “a large number of live bacteria stained green and a small number of dead bacteria stained red”. For the same molecule, the “bacterial morphology under a scanning electron microscope” value in assay [3] (FIG. 6) is “regular and intact morphology”; in assay [4] (FIG. 6) it was “regular and intact morphology”; in assay [5] (FIG. 6), “regular and intact morphology”; in assay [6] (FIG. 6), “regular and intact morphology”. In assay [7], the corneal infection entry was “obviously infected”.
